Patent US12673052B2, “Combinations for the treatment of cancer” (Exelixis, Inc., priority 2020, dated 2026)

What was measured:
[1] = Single-dose plasma PK, IV and oral (PEG 400:EtOH:RO water); format: in vivo, dogs
Experimental: Plasma PK of Compound 1 was characterized in rats and beagle dogs. Toxicokinetic (TK) evaluations of oral Compound 1 were evaluated in repeat-dose studies in rats and dogs. Plasma protein binding was determined in mouse, rat, dog, monkey, and human plasma in vitro. Biotransformation and metabolite profiling of Compound 1 were investigated in vitro using mouse, rat, dog, monkey, and human liver microsomal fractions and hepatocytes and in vivo in rats and dogs. P-glycoprotein (P-gp) and breast cancer resistance protein (BCRP) transporter interaction studies, in vitro experiments evaluating cytochrome P450 (CYP) induction and inhibition by Compound 1, and CYP and glucuronosyltransferase (UGT) substrate specificity studies of Compound 1 were also performed.
The PK and TK of Compound 1 were assessed in rats and dogs after intravenous (IV; only single dose PK) and oral (PO) administration of Compound 1 in formulations prepared in polyethylene glycol 400 (PEG 400): ethanol (EtOH): reverse osmosis water (RO Water) (45:5:50 v/v/v).
Median time to maximum plasma concentration (Tmax) occurred at approximately 2-3 hours in rats and dogs.
(§1) The mean plasma t1/2, z values were approximately 9 hours in rats and 4 hours in dogs. Interspecies scaling based on body weight to predict PK parameters in humans could not be performed because dogs (larger species) cleared Compound 1 faster than rats (smaller species). Therefore, the human PK was projected based on one species (rat). […] This apparent clearance value (CL/F) was used to predict steady-state exposure (AUC and average plasma concentration [Cavg]) in humans for the proposed first-in-human (FIH) starting dose for Study Compound 1-001.

MER = MER (Homo sapiens, UniProt Q12866); assay: RTK autophosphorylation ELISA, 293A cells transfected with receptor expression vector; format: cell-based; set-up: expressed in transfected cells; host or cells: 293A; conditions: no ligand, read-out: Cellular IC50
Chain of MER (Q12866 21-999): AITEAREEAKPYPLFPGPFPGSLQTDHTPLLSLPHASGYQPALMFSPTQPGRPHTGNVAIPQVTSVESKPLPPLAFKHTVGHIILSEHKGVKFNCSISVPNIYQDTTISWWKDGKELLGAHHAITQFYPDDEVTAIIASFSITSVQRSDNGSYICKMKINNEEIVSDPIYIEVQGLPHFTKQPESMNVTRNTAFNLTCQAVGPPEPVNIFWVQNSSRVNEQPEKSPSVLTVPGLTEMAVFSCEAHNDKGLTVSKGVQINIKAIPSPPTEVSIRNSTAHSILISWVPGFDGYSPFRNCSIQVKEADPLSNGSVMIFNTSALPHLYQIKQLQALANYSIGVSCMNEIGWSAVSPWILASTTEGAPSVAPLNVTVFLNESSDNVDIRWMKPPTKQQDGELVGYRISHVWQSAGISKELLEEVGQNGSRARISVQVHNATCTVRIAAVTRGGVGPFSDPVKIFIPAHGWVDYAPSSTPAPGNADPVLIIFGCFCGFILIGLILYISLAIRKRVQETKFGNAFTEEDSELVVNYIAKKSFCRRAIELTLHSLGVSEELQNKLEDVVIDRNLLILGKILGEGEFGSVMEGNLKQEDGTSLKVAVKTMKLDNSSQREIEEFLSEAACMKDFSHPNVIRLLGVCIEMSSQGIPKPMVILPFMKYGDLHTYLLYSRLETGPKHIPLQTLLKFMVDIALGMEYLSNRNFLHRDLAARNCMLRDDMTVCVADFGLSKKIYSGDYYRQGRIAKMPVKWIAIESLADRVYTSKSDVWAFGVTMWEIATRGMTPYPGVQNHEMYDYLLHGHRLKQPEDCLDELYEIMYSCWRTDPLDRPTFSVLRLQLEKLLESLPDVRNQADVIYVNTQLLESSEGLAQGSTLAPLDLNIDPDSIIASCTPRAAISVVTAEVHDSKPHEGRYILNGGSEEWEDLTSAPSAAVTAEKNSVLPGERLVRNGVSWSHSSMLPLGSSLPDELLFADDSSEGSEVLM
Experimental: The activity of Compound 1 was evaluated in cell-based assays that assessed the mechanistic effects of the compound in tumor and normal cells. Consistent with the biochemical data, Compound 1 is a potent inhibitor of cellular RTKs as assessed by analysis of receptor autophosphorylation as measured by enzyme-linked immunosorbent assay. Assays were performed using cell lines (PC-3, HUVEC, and A-172) stimulated with ligands to their respective receptors to induce autophosphorylation (MET, VEGFR2, and AXL) or a cell line (293A) transfected with an expression vector encoding the receptor of interest (MER). Inhibition of endogenous phosphorylated MET by Compound 1 in Hs 746T gastric carcinoma cells was also investigated due to the presence of the skip-splice mutation of exon 14 in the MET gene. This MET exon 14 alteration leads to increased MET stability and oncogenic activation, including constitutive MET phosphorylation. Also this mutation is known to occur in 3% of lung adenocarcinoma patients and to be sensitive to MET-targeted therapies (Frampton et al 2015).

[2] = Projection of human PK and steady-state exposure based on one species (rat)
Experimental: as §1
The steady-state exposure of Compound 1 in humans for the proposed clinical starting dose of 10 mg daily was projected. At this dose, Compound 1 is projected to yield exposures 54-fold lower than those at the highest non-severely toxic dose (HNSTD) in rats (10 mg/kg qd), the highest dose tested in the GLP 4-week toxicity study. […] Compound 1-related findings at the 10 mg/kg/day dose included bile duct inflammation, hyperplasia and individual hepatocyte necrosis (generally minimal-mild) which were fully reversible following 14 days recovery, as were correlative <2-fold aspartate aminotransferase (AST) and <5-fold alanine aminotransferase (ALT) increases.

[3] = Repeat-dose toxicity studies (7-day range-finding, definitive 28-day, 14-day recovery); format: in vivo, rats
Experimental: The nonclinical toxicity of Compound 1 was characterized in dose range-finding 7-day and definitive 28-day repeat-dose studies in rats and dogs, and in in vitro bacterial and mammalian genotoxicity bioassays. Compound 1 was also evaluated in definitive neurobehavioral, respiratory and cardiovascular safety pharmacology studies.
Following a 2-week recovery phase, increased physeal thickness and tooth degeneration persisted but were less severe. These findings are consistent with an on-target pharmacologic VEGFR inhibition by Compound 1.
These microscopic lesions were fully reversible following a 14-day recovery period, and were associated with correlative reversible changes in clinical chemistry markers of hepatic function (eg, <2-fold increase in AST and <5-fold increase in ALT at 10 mg/kg/day).

[4] = Toxicokinetics in 28-day repeat-dose toxicity study; format: in vivo, dogs; conditions: for half-life: oral
Experimental: In a 28-day repeat-dose toxicity study in dogs dosed orally daily with Compound 1 at 2, 6 and 18 mg/kg, high variability in Compound 1 exposure was generally observed for all dose levels on Days 1 and 28. Across the dose range evaluated, the mean % CV for Cmax and AUC0-24 was 46.2-93.2% and 45.5-91%, respectively, on Day 1 and 39.3-53.9% and 36.2-51.1%, respectively, on Day 28.

[5] = 10 mg/kg/day, daily for 4 weeks, reversible

## CNC(=O)c1cc2c(Oc3ccc(NC(=O)C4(C(=O)Nc5ccc(F)cc5)CC4)cc3)ccnc2cc1OC [Compound 1, 1-N′-(4-Fluorophenvl)-1-N-[4-[7-methoxy-6-(methylcarbamovl)quinolin-4-yl]oxyphenyl]cyclopropane-1,1-dicarboxamide]
[1]; beagle, dog, plasma, po, 0.2-0.6 mg/kg, read-out: Oral absolute bioavailability
  bioavailability: 47 to 70%
[1]; beagle, dog, plasma, after oral administration, read-out: terminal phase half-life (t1/2, z)
  half-life: 1 to 3 h
[1]; beagle, dog, plasma, single oral dose, read-out: Median time to maximum plasma concentration (Tmax)
  Tmax: 2 to 3 h
[1]; beagle, dog, plasma, single-dose IV 0.2-0.6 mg/kg, read-out: mean plasma clearance (CL) (converted)
  clearance: 6.33 mL/min/kg
[1]; beagle, dog, plasma, single-dose IV, read-out: mean plasma t1/2, z (converted)
  half-life: ~4 h
[1]; beagle, dog, plasma, single-dose IV, read-out: mean volume of distribution at steady-state (Vss)
  Vd: 1.98 L/kg
[1]; higher in dogs than in rats
  plasma clearance in dogs relative to rats: approximately 16 fold
[1]; single oral doses 0.2-0.6 mg/kg
  increase of exposure (Cmax and AUC0-inf) with dose: approximately dose proportionally
MER
  IC50: 7.1 nM
[2]; assuming rat CL=23.4 mL/hr/kg and F=70%
  projected apparent CL (CL/F) after oral administration in human: 0.557 mL/min/kg
[2]; for a 70-kg human
  projected apparent CL (CL/F) after oral administration in human: 2338 mL/h
[2]; proposed clinical starting dose of 10 mg daily vs 10 mg/kg qd in rats
  projected human exposure lower than exposure at HNSTD in rats: 54 fold
[3]; 10 mg/kg/day for 4 weeks, appeared reversible
  histopathologic changes in female reproductive tract tissues: increased size and number of regressing corpora lutea in ovarian tissue and a higher frequency of dilated uteri
[3]; 10 mg/kg/day, 4 weeks, minimal to mild severity, fully reversible after 14-day recovery
  hepatobiliary histologic findings: bile duct inflammation and hyperplasia, and individual hepatocyte necrosis
[3]; [5]
  increase in ALT: < 5 fold
  increase in AST: < 2 fold
[3]; 14-day non-treatment recovery period
  reversibility of adverse findings: partially or completely reversible
[3]; GLP 4-week toxicity study, highest dose tested
  highest non-severely toxic dose (HNSTD): 10 mg/kg qd
[3]; daily for 4 weeks
  ophthalmic findings: No adverse ophthalmic findings
[3]; daily for 4 weeks, >3 mg/kg/day, persisted but less severe after 2-week recovery
  histomorphologic findings in bone and teeth: increased physeal thickness of the femur and degeneration of the tooth dentin and enamel
[3]; recovery cohort, 10 mg/kg/day 4 weeks + 14-day non-treatment, females minimal-moderate, males slight-moderate
  nasal turbinate histologic findings: proliferation of nasal turbinate bone
[3]; repeat-dose
  bone marrow microscopic findings: minimal severity decreased bone marrow cellularity
  cholesterol and triglyceride levels: Increased cholesterol and triglyceride levels
  reticulocytes: transient decreases in reticulocytes
  spleen findings: Extramedullary hematopoiesis (minimal) and increased lymphocytes (minimal-slight)
[4]; 18 mg/kg dose level
  mean accumulation ratio for AUC0-24: 0.874
  mean accumulation ratio for Cmax: 0.891
[4]; 2 and 6 mg/kg dose levels
  mean accumulation ratio for AUC0-24: 1.57-3.38
  mean accumulation ratio for Cmax: 1.67-4.75
[4]; 28-day study
  Sex differences in mean Cmax and AUC0-24 values: less than 2 fold
[4]; both sexes, dog, plasma, Day 1
  half-life: 4.57 to 6.29 h
[4]; both sexes, dog, plasma, Day 28
  half-life: 3.96 to 5.23 h
[4]; both sexes, dog, plasma, oral gavage 2, 6 and 18 mg/kg, Days 1 and 28, read-out: median Tmax
  Tmax: 2 h
